Measurements as given in ChEMBL document CHEMBL5500373, “Lead optimization based design, synthesis, and pharmacological evaluation of quinazoline derivatives as multi-targeting agents for Alzheimer's disease treatment” (Eur J Med Chem, 2024).
pIC50, pKi: −log10 of the molar value. Calls of active or inactive are those of the source. The rule behind the calls is not given here.

Tests used:
Cholinesterase = Cholinesterase (Homo sapiens, UniProt P06276); assay: Inhibition of human serum BChE using butyrylthiocholine iodide as substrate preincubated for 30 mins followed by substrate addition and measured after 30 mins by DTNB based Ellman's method
Cholinesterase, sequence (P06276 whole entry): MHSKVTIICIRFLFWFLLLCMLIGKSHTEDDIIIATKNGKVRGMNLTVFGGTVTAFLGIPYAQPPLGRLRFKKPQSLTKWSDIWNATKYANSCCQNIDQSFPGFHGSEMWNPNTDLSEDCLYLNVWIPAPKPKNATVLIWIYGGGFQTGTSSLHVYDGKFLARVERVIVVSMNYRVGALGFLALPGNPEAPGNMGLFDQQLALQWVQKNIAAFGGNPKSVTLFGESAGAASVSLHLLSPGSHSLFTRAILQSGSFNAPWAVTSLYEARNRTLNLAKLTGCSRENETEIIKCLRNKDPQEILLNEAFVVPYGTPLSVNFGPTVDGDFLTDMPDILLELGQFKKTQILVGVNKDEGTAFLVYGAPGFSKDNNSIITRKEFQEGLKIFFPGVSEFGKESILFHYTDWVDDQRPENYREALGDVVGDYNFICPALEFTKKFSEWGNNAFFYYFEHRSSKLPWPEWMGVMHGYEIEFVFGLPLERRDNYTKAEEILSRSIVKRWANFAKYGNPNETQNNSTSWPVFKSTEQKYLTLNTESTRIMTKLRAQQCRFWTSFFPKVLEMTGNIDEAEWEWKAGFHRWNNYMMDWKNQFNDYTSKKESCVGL

Beta-secretase 1 = Beta-secretase 1 (Homo sapiens, UniProt P56817); assay: Inhibition of human BACE-1 measured after 2 hrs by FRET assay
Beta-secretase 1, sequence (P56817 whole entry): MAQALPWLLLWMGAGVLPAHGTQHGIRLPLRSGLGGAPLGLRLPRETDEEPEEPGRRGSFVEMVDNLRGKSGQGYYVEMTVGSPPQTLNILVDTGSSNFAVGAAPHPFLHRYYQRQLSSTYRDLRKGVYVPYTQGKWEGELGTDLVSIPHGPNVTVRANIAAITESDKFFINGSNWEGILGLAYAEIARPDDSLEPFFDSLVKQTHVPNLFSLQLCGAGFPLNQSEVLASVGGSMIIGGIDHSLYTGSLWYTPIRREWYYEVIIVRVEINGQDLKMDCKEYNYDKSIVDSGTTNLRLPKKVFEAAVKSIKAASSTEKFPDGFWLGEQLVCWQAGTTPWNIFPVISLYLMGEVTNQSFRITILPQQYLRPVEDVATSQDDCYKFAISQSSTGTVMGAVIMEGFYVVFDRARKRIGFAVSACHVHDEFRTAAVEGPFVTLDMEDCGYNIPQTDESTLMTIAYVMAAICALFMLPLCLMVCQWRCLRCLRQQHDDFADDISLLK

Acetylcholinesterase [1] = molecular target: T1, Acetylcholinesterase (Homo sapiens, UniProt P22303); assay: Non-competitive inhibition of human AChE using varying concentrations of acetylthiocholine iodide as substrate assessed as reduction in Vmax with constant Km at 0.03 to 0.3 uM by Lineweaver-Burk double reciprocal plot analysis; settings: dose 0.03-0.3 µM
T1 sequence (P22303 whole entry): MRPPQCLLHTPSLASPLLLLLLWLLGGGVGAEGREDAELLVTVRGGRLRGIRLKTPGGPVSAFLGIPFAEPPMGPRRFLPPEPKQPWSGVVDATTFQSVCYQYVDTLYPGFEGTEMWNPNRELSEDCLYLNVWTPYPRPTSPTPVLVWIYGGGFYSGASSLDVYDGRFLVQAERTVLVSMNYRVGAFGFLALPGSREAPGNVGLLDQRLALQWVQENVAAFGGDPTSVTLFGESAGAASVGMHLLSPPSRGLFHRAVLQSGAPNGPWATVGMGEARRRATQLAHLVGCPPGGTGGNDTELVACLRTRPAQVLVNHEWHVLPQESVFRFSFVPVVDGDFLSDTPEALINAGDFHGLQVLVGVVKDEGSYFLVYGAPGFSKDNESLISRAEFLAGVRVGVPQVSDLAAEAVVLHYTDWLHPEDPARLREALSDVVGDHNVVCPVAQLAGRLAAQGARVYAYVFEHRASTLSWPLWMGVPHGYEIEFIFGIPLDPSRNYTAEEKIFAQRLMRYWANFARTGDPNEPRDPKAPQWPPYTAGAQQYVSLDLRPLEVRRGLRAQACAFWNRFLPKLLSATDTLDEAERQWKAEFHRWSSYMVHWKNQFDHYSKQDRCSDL

Acetylcholinesterase [2] = molecular target: T1, Acetylcholinesterase; assay: Non-competitive inhibition of human AChE using acetylthiocholine iodide as substrate assessed as inhibition constant at 0.03 to 0.3 uM by Dixon plot analysis
Acetylcholinesterase [3] = molecular target: T1, Acetylcholinesterase; assay: Inhibition of human AChE using acetylthiocholine iodide as substrate assessed as reversal of enzyme activity by measuring remaining activity at 10 to 100 times IC50 incubated for 30 mins followed by dilution to 0.1 to 1 times IC50 with substrate
Acetylcholinesterase [4] = molecular target: T1, Acetylcholinesterase; assay: Inhibition of human AChE using acetylthiocholine iodide as substrate assessed as reduction in enzyme activity at 10 to 100 times IC50 incubated for 30 mins
[5] = molecular target: Amyloid-beta precursor protein (Homo sapiens) (UniProt P05067); assay: Inhibition of self induced amyloid beta (1 to 42 residues) (unknown origin) aggregation at 5 to 20 uM measured after 48 hrs by thioflavin T based fluorescence analysis relative to control; settings: dose 5-20 µM
Amyloid-beta precursor protein (Homo sapiens), sequence (P05067 whole entry, the tested form may be a part): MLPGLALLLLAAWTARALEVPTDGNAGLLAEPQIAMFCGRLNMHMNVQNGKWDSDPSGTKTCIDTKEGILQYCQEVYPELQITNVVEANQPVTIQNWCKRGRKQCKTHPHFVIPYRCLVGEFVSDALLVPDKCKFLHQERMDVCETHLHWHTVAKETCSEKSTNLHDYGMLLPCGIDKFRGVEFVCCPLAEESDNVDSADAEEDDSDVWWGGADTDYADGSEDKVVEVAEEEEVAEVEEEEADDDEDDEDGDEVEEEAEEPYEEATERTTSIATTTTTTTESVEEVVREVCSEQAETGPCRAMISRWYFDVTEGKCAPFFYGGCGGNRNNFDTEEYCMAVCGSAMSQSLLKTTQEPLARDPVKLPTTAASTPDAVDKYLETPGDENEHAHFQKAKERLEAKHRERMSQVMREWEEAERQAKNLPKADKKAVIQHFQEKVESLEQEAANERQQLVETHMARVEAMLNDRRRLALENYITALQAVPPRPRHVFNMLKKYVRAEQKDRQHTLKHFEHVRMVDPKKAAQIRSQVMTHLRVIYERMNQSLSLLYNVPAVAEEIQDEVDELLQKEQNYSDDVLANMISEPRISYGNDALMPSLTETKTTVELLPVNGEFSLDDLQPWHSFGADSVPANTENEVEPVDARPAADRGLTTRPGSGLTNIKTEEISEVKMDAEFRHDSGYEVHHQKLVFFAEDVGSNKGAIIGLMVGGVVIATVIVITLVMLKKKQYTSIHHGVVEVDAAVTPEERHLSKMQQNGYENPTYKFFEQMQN

[6] = molecular target: Amyloid-beta precursor protein (Homo sapiens) (UniProt P05067); assay: Inhibition of self induced amyloid beta (1 to 42 residues) (unknown origin) aggregation assessed as reduction in NFI measured after 48 hrs by thioflavin T based fluorescence analysis; settings: dose 5-20 µM
[7] = molecular target: Amyloid-beta precursor protein (Homo sapiens) (UniProt P05067); assay: Inhibition of amyloid beta (1 to 42 residues) (unknown origin) aggregation assessed as reduction in fibrils measured after 3 days by AFM analysis; settings: time 3.0 day
[8] = molecular target: Amyloid-beta precursor protein (Homo sapiens) (UniProt P05067); assay: Inhibition of amyloid beta (1 to 42 residues) (unknown origin) aggregation assessed as disaggregation by measuring reduction in fluorescence intensity measured after 3 days by confocal microscopic analysis; settings: time 3.0 day
[9] = Neurotoxicity against retinoic acid/BDNF differentiated human SH-SY5Y cells assessed as reduction in cell viability at 80 uM incubated for 24 hrs by MTT assay relative to control; assay type: toxicity, cell-based
[10] = Acute toxicity in female Wistar rat assessed as signs of toxicity at 100 to 500 mg/kg, po measured after 14 days; assay type: organism-based; settings: in vivo, 336 h, dose 100-500 mg/kg, time 14 day
[11] = Acute toxicity in female Wistar rat assessed as adverse side effects at 100 to 500 mg/kg, po measured after 14 days; assay type: organism-based; settings: in vivo, 336 h, dose 100-500 mg/kg, time 14 day
[12] = Acute toxicity in female Wistar rat assessed as weight loss at 100 to 500 mg/kg, po measured upto 5 days; assay type: organism-based; settings: in vivo, 120 h, dose 100-500 mg/kg, time < 5 day
[13] = Acute toxicity in female Wistar rat assessed as histopathological changes in kidneys at 100 to 500 mg/kg, po measured after 14 days; assay type: organism-based; settings: in vivo, 336 h, dose 100-500 mg/kg, time 14 day
[14] = Acute toxicity in female Wistar rat assessed as histopathological changes in liver at 100 to 500 mg/kg, po measured after 14 days; assay type: organism-based; settings: in vivo, 336 h, dose 100-500 mg/kg, time 14 day
Rattus norvegicus [15] = assay: Reversal of amyloid beta (1 to 42 residues) induced cognitive impairment in female Wistar rat assessed as reduction in escape latency time at 20 mg/kg, po pretreated with amyloid beta for 7 days followed by compound administration and measured after 5 days by Morris water maze test; assay type: functional, organism-based; settings: time 5.0 day
Rattus norvegicus [16] = assay: Reversal of amyloid beta (1 to 42 residues) induced cognitive impairment in female Wistar rat assessed as increase in total platform crossing at 20 mg/kg, po pretreated with amyloid beta for 7 days followed by compound administration and measured after 5 days by Morris water maze test; assay type: functional, organism-based; settings: time 5.0 day
Rattus norvegicus [17] = assay: Reversal of amyloid beta (1 to 42 residues) induced cognitive impairment in female Wistar rat assessed as reduction in amyloid beta level in brain hippocampus at 20 mg/kg, po pretreated with amyloid beta for 7 days followed by compound administration and measured after 5 days by immunohistochemistry analysis; assay type: functional, organism-based; settings: time 5.0 day
Rattus norvegicus [18] = assay: Reversal of amyloid beta (1 to 42 residues) induced cognitive impairment in female Wistar rat assessed as increase in neuronal density in brain at 20 mg/kg, po pretreated with amyloid beta for 7 days followed by compound administration and measured after 5 days by Nissls staining based light microscopic analysis; assay type: functional, organism-based; settings: time 5.0 day
Rattus norvegicus [19] = assay: Reversal of amyloid beta (1 to 42 residues) induced cognitive impairment in female Wistar rat assessed as increase in neuronal arrangements in brain at 20 mg/kg, po pretreated with amyloid beta for 7 days followed by compound administration and measured after 5 days by Nissls staining based light microscopic analysis; assay type: functional, organism-based; settings: time 5.0 day
[20] = Toxicity in Drosophila melanogaster Oregon R-positive assessed as reduction in cell viability upto 50 uM measured until 15 days; settings: 360 h, time 15 day
[21] = Toxicity in Drosophila melanogaster Oregon R-positive assessed as reduction in eclosed flies at pupal stage at 100 uM measured until 15 days relative to control; parameters: scale not given: the % may be the effect or the level left; settings: 360 h, time 15 day
Drosophila melanogaster [22] = assay: Reversal of ey-GAL4 driven UAS-amyloid beta induced cellular toxicity in Drosophila melanogaster Oregon R-positive model assessed as increase in cell viability in gut at 1 uM by MTT assay relative to control; assay type: functional
Drosophila melanogaster [23] = assay: Reversal of ey-GAL4 driven UAS-amyloid beta induced cellular toxicity in Drosophila melanogaster Oregon R-positive model assessed as increase in cell viability in gut at 5 uM by MTT assay relative to control; assay type: functional
Drosophila melanogaster [24] = assay: Reversal of ey-GAL4 driven UAS-amyloid beta induced cellular toxicity in Drosophila melanogaster Oregon R-positive model assessed as increase in cell viability in gut at 50 uM by MTT assay relative to control; assay type: functional
Drosophila melanogaster [25] = assay: Reversal of ey-GAL4 driven UAS-amyloid beta induced cellular toxicity in Drosophila melanogaster Oregon R-positive model assessed as increase in rescued eye phenotype at 5 uM by trinocular stereo-zoom microscope relative to control; assay type: functional
Drosophila melanogaster [26] = assay: Reversal of ey-GAL4 driven UAS-amyloid beta induced cellular toxicity in Drosophila melanogaster Oregon R-positive model assessed as increase in rescued eye phenotype at 10 uM by trinocular stereo-zoom microscope relative to control; assay type: functional
Drosophila melanogaster [27] = assay: Reversal of ey-GAL4 driven UAS-amyloid beta induced cellular toxicity in Drosophila melanogaster Oregon R-positive model assessed as increase in rescued eye phenotype at 15 uM by trinocular stereo-zoom microscope relative to control; assay type: functional
Drosophila melanogaster [28] = assay: Reversal of ey-GAL4 driven UAS-amyloid beta induced cellular toxicity in Drosophila melanogaster Oregon R-positive model assessed as reduction in mild ommatidial death eye phenotype at 10 uM by trinocular stereo-zoom microscope relative to control; assay type: functional; parameters: scale not given: the % may be the effect or the level left
[29] = Drug concentration in male Wistar rat brain homogenate at 20 mg/kg, po measured after 4 days; assay type: ADME, organism-based; settings: time 4 day, read-out: Ct
[30] = Elimination half life in male Wistar rat at 20 mg/kg, po measured upto 32 hrs by high-performance liquid chromatography; assay type: ADME, organism-based; settings: in vivo, read-out: beta t1/2 (converted)
in vitro = settings: PAMPA

## COc1cc2ncnc(N3CCN(Cc4ccccc4)CC3)c2cc1OC
Cholinesterase
  pIC50: < 5.00
Beta-secretase 1
  pIC50: 6.64
Acetylcholinesterase [1]
  Activity: Active
Acetylcholinesterase [2]
  pKi: 6.61
Acetylcholinesterase [3]
  Activity: > 60%
Acetylcholinesterase [4]
  inhibition: Active
[5]
  inhibition: 27.3%
[6]
  inhibition: Dose-Dependent Effect
[7]
  inhibition: Active
[8]
  Activity: Active
[9]
  Activity: 26%
[10]
  Activity: Non-Toxic
[11]
  Activity: Non-Toxic
[12]
  Activity: Toxic
[13]
  Activity: Non-Toxic
[14]
  Activity: Non-Toxic
Rattus norvegicus [15]
  Activity: Active
Rattus norvegicus [16]
  Activity: Active
Rattus norvegicus [17]
  Activity: Active
Rattus norvegicus [18]
  Activity: Active
Rattus norvegicus [19]
  Activity: Active
[20]
  Activity: Non-Toxic
[21]
  Activity: 65%
Drosophila melanogaster [22]
  Activity: 69%
Drosophila melanogaster [23]
  Activity: 82%
Drosophila melanogaster [24]
  Activity: 75%
Drosophila melanogaster [25]
  Activity: 27%
Drosophila melanogaster [26]
  Activity: 36.6%
Drosophila melanogaster [27]
  Activity: 57%
Drosophila melanogaster [28]
  Activity: 37%
[29]
  concentration at 96 h: 977 ng/mL
[30]
  half-life: 3.11 h
In vitro
  Papp at 18 h, 25 ug/ml: 6.03 ×10⁻⁶ cm/s
